The text below walks through data of article PMC9325934, “Preliminary mechanistic insights of a brain-penetrant microtubule imaging PET ligand in a tau-knockout mouse model” (EJNMMI Research, 2022).

For data set [1], the system named is stabilized/bound and destabilized/free tubulins of SH-SY5Y cells. Description: Cytoskeleton kit-based tubulin assay with [11C]MPC-6827 (free vs bound tubulin fractions). The data set is classed as cell-based, human. The settings on record: for decrease of [11C]MPC-6827 radioactivity in bound tubulin fractions / decrease of [11C]MPC-6827 radioactivity in free tubulin fractions / increase of [11C]MPC-6827 radioactivity in bound fractions / increase of [11C]MPC-6827 radioactivity in free tubulin fractions: 1.0 µM agent 3 h, vs untreated fractions. The protocol: To further investigate the tubulin selectivity of [^11C]MPC-6827 in SH-SY5Y cells, tubulin assay was performed using the commercially available kit-based assay (Cytoskeleton Inc, USA). Briefly, SH-SY5Y cells (7 × 10^6 cells/well) were pretreated with 1.0 µM of same MT stabilizing (EpoD, paclitaxel) and destabilizing agents (mertasine, vinblastine) for 3 h (n = 3/group). […] Samples were loaded on to ultra-centrifuge following the kit-based assay parameters to separate stabilized/bound and destabilized/free tubulins. Stabilized tubulins from low-speed centrifugation (1000×g for 5 min at 37 °C) and destabilized tubulins from high speed centrifugation (100,000×g for 20 min at 37 °C) were collected separately and their associated radioactivity was measured using a γ counter (Perkin Elmer).

A short description of data set [2]: [11C]MPC-6827 brain microPET/CT at baseline and after EpoD treatment. The following applies: female Balb/C mice, EpoD 3.0 mg/kg intraperitoneal, 3 days acute treatment. In kind it is in vivo. As for the experimental part:
To validate the in vitro MT-stabilization cell uptake results, normal Balb/C mice (n = 6, 6 mo old) were treated with epothilone D (EpoD), a brain-penetrant, MT-stabilizing drug commonly used in tauopathies. [^11C]MPC-6827 brain PET/CT imaging was performed at baseline and after 3 days of acute treatment of EpoD treatment (3.0 mg/kg intraperitoneal injection). Whole-brain SUVmax was calculated and compared between the baseline and post-drug treatment scans.

A further data set has as its system SH-SY5Y cells. The data set is described as follows: In vitro [11C]MPC-6827 cell uptake assay with MT stabilizing/destabilizing agents and self-blocking.
A short description of data set [3]: In vitro autoradiography of [11C]MPC-6827 on brain sections. In kind it is binding, mice. The protocol: Autoradiography studies in vitro were performed on postmortem frozen brain sections from tau KO and control mice (n = 6/group) following published protocols. Briefly, the sagittal sections were mount on a glass slides (Super frost plus slides, Fisher Scientific, Waltham, MA), air-dried for 30 min and incubated in PBS (pH 7.4) for 10 min to remove any endogenous binding. Additionally, a sub-section of tau KO brains (n = 4) were self-blocked with non-radioactive MPC-6827 (10 µM) 1 h prior to radiotracer treatment. The slides were air-dried and ~ 0.5 MBq of [^11C]MPC-6827 in PBS was added to each slide and incubated for 30 min. The slides were then washed with PBS (3×) and water (1×) at 4 °C and quickly air-dried. Slides containing the brain tissues were exposed to radioluminographic imaging cassette BAS IP SR 2025 (GE Healthcare) for 12 h at − 20 °C and scanned with a GE Amersham Typhoon scanner (25 µm pixel size). Autoradiographs were analyzed using ImageQuant TL 8.2 and ROI were manually drawn (see Additional file 1: 3), and specific binding in each ROI was calculated and expressed as photo-stimulated luminescence signals per square millimeter (PSL/mm^2).

For another data set, the system named is β-tubulin. Details: method as in PMID 17575155. The following applies: high-affinity, selective β-tubulin binding MT agent; cited from earlier work.
Details of data set [4]: method as in earlier work. The settings on record: mice, rats, and dogs; cited from earlier work.
Data set [5] can be described thus: [11C]MPC-6827 microPET/CT brain imaging in tau KO and WT mice. The data set is classed as in vivo. The protocol: Small animal microPET/CT imaging was performed in anesthetized tau-KO and WT mice (n = 8/group) at 6 months of age. All mice received a bolus injection of [^11C]MPC-6827 (18.1 ± 0.01 MBq) via the tail vein. For the microPET/CT scans, the head/brain area was centered in the field of view, and the list-mode data from the emission scans were reframed into a 0-60 min dynamic binning sequence. Time-activity curves (TACs) were obtained, and radioactive uptake was expressed as standardized uptake values (SUVs) using the PMOD analysis software. Regions of interest (ROIs) were drawn for the whole brain and commonly AD-affected regions including cortex, striatum, hippocampus, and cerebellum, using Π-pmod Atlas software.

Data set [6] in a line: Post-PET ex vivo biodistribution of [11C]MPC-6827 in tau KO and WT mice. As for the experimental part:
Post-PET radiotracer tissue biodistribution studies were performed with [^11C]MPC-6827 in the KO and WT mice (n = 4/group). After dynamic brain imaging from 0 to 60 min, mice were euthanized, and samples of brain, blood, heart, lung, liver, spleen, pancreas, kidney, and muscle were harvested, weighed, and γ-counted using a Wallac Gamma Counter (PerkinElmer) with a standard dilution of the injectate. […]

The mark [7] stands for this setting: 1.0 µM agent for 3 h, then tracer 30 min at RT, vs untreated cells.

Counter-ions that a name gives are not always drawn.

Take `C/C1=C/C[C@@H](/C(C)=C/c2csc(C)n2)OC(=O)C[C@H](O)C(C)(C)C(=O)[C@H](C)[C@@H](O)[C@@H](C)CCC1` [EpoD, Epothilone d]: in data set [1], the “decrease of [11C]MPC-6827 radioactivity in bound tubulin fractions” value is given as ~ 62 (± 6) % and the “decrease of [11C]MPC-6827 radioactivity in free tubulin fractions” value is ~ 44 (± 1) %. For the same compound, in data set [2], the “lower [11C]MPC-6827 brain uptake (whole-brain SUVmax) with EpoD treatment compared to baseline” value is ~ 23 (± 1) %. In addition, the “decrease of [11C]MPC-6827 radioactive uptake” value with SH-SY5Y cells (setting [7]) is listed as ~ 44 (± 2) %.
Take `COc1ccc(N(C)c2nc(C)nc3ccccc23)cc1` [MPC-6827, MPC-6827 hydrochloride]: the “lower radiotracer uptake on blocking compared to untreated tau KO samples” value in data set [3] (non-radioactive MPC-6827 10 µM 1 h prior to radiotracer, whole brain, cortex, hippocampus, mid-brain regions of tau KO sections) is 63–70%. In addition, the IC50 with β-tubulin is 1.5 nM. The brain-to-plasma ratios in data set [4] was 14–30 times. The “lower [11C]MPC-6827 radioactive uptake in self-blocking assay” value in the data set with SH-SY5Y cells (non-radioactive MPC-6827 1.0 µM 60 min before tracer, 30 min incubation) is reported as ~ 70 (± 1) %.
In the case of `Cc1nc(N(C)c2ccc(O[11CH3])cc2)c2ccccc2n1` [[^11C]MPC-6827], in data set [1] (tracer 30 min at RT), the “increased radioactivity in destabilized/free tubulin fractions compared to bound fractions” value was > 90 (± 4) %. The “whole-brain SUVmax” value turned out to be 1.74 in data set [5] (WT mice, 0-60 min microPET/CT, IV) and 2.33 in data set [5] (tau KO mice, 0-60 min microPET/CT, IV). Besides, the “time of peak brain radioactivity (TAC)” value in data set [5] (both genotypes (tau KO and WT)) is “around 4 min”. In addition, the “whole-brain SUVmax in tau KO higher than in WT controls” value in data set [5] (tau KO vs WT mice, 0-60 min microPET/CT, IV) was 33 (± 2) %. Besides, the brain uptake in data set [6] (WT controls, brain) is on record as 1.03 ± 0.29 %ID/g; in data set [6] (tau KO mice, brain) it was 1.76 ± 0.31 %ID/g. In data set [6] (brain), the “higher brain uptake in tau KO mice compared to WT controls” value is recorded as ~ 41%. In addition, the “uptake in cortical regions” value in data set [6] (controls (WT), cortical regions) is given as 0.69 ± 0.07 %ID/g; in data set [6] (tau KO mice, cortical regions), 1.11 ± 0.03 %ID/g. Further, in data set [6] (cortical regions), the “uptake in cortical regions of tau KO brains higher than in controls” value stood at 37%. Also, in data set [3] (autoradiography in vitro, cortex), the “higher radioactivity in tau KO brains compared to age-matched controls, cortex” value is ~ 38[± 2] %. Further, in data set [3] (autoradiography in vitro, hippocampus), the “higher radioactivity in tau KO brains compared to age-matched controls, hippocampus” value was ~ 33[± 3] %. In addition, in data set [3] (autoradiography in vitro, midbrain regions), the “higher radioactivity in tau KO brains compared to age-matched controls, midbrain regions” value is 30[± 3] %. Besides, the “higher radioactivity in tau KO brains compared to age-matched controls, whole brain” value in data set [3] (autoradiography in vitro, whole brain) is ~ 46[± 4] %.
In the case of `COc1cc2cc(c1Cl)N(C)C(=O)C[C@H](OC(=O)[C@H](C)N(C)C(=O)CCS)[C@]1(C)O[C@H]1[C@H](C)[C@@H]1C[C@@](O)(NC(=O)O1)[C@H](OC)/C=C/C=C(\C)C2` [mertasine], in data set [1], the “increase of [11C]MPC-6827 radioactivity in bound fractions” value is ~ 66 (± 2) % and the “increase of [11C]MPC-6827 radioactivity in free tubulin fractions” value is ~ 39 (± 3) %. Also, in the data set with SH-SY5Y cells (setting [7]), the “increase of [11C]MPC-6827 radioactive uptake” value is listed as 63 (± 2) %.
Turning to `CC(=O)O[C@H]1C(=O)[C@@]2(C)[C@H]([C@H](OC(=O)c3ccccc3)[C@]3(O)C[C@H](OC(=O)[C@H](O)[C@@H](NC(=O)c4ccccc4)c4ccccc4)C(C)=C1C3(C)C)[C@]1(OC(C)=O)CO[C@@H]1C[C@@H]2O` [paclitaxel], in data set [1], the “decrease of [11C]MPC-6827 radioactivity in bound tubulin fractions” value is given as ~ 60 (± 2) % and the “decrease of [11C]MPC-6827 radioactivity in free tubulin fractions” value is reported as ~ 36.8 (± 3) %.
In the case of `CC[C@]1(O)C[C@@H]2CN(CCc3c([nH]c4ccccc34)[C@@](C(=O)OC)(c3cc4c(cc3OC)N(C)[C@H]3[C@@](O)(C(=O)OC)[C@H](OC(C)=O)[C@]5(CC)C=CCN6CC[C@]43[C@@H]65)C2)C1` [vinblastine], in data set [1], the “increase of [11C]MPC-6827 radioactivity in bound fractions” value is 84 (± 4) % and the “increase of [11C]MPC-6827 radioactivity in free tubulin fractions” value is recorded as ~ 43 (± 1) %. The “increase of [11C]MPC-6827 radioactive uptake” value in the data set with SH-SY5Y cells (setting [7]) is ~ 78 (± 2) %.
